What is called solubility is the concentration that dissolves in the medium under given conditions.

The nature of data set [1]: Thermodynamic solubility in PBS buffer pH 7.4. It is filed as physicochemical. The protocol: The thermodynamic solubility of freebase (example 1), phosphate form 1 (example 3) and L-tartrate form 1 (example 5) were assessed in phosphate buffered saline (PBS) buffer at pH 7.4 according to the following procedure: • Approximately 30 mg of each form was weighed into 2 mL glass vials. • 100 μL of buffer solution was added to each vial until partial dissolution was observed. • The observed slurries were agitated at ambient temperature for about 24 hours. • The samples were collected, and observations were recorded. • The samples were filtered via centrifugation. • The pH of the mother liquors were recorded. • The concentration of the mother liquors were recorded by HPLC.

Data set [2] has as its system C57BL/6 mouse model of opioid withdrawal. As to the kind of experiment: Naloxone precipitated oxycodone withdrawal-induced jumping. It counts as in vivo. As to conditions: 7.3 mg/kg FBE i.p., C57BL/6 mice, 30 min session, vs OXY_VEH. The method, then:
Two cohorts of adult male C57BL/6 mice were run assessing the effects of 7.3 mg/kg freebase equivalent (FBE) IP of the compound of the invention in the dihydrochloride salt form (CMPD1-2HCL) and the phosphate form 1 (CMPD1-PO4) on naloxone precipitated withdrawal-induced jumping.
The first cohort of mice (N=30) were split into the following conditions: • (1) Vehicle, 0 mg/kg (n=10); • (2) oxycodone, 0 mg/kg compound of the invention FBE in 2HCL salt form (n=10); • (3) oxycodone, 7.3 mg/kg compound of the invention FBE in 2HCL salt form (n=10).
The second cohort of mice (N=24) were split into the following conditions: • (1) Vehicle, 0 mg/kg (n=8); • (2) oxycodone, 0 mg/kg compound of the invention FBE in PO4 salt form (n=8); • (3) oxycodone, 7.3 mg/kg compound of the invention FBE in PO4 salt form (n=8).
Mice in the oxycodone conditions received i.p. injections of oxycodone for 5 days according to the schedule and doses set out in Table 8. The morning and afternoon doses were separated by 7 h. Mice in the vehicle condition received injections of vehicle saline instead of oxycodone. […]
Testing involved placing mice individually into a 20 (I)×20 (w)×30 (h) cm arena for 30 min. […] Number of jumps were scored from the videos by an experienced experimenter blind to conditions.
Data were analysed by SPSS using oneway ANOVA and planned contrasts.

Structures can show the parent of a compound that is named as a salt.

The molecule `Cn1ncc2c1Nc1ccccc1NC2` [Phosphate form 1, phosphoric acid addition salt of 1-methyl-1,4,5,10-tetrahydropyrazolo[3,4-b][1,5]benzodiazepine] showed a solubility in data set [1] (PBS buffer at pH 7.4, ambient temperature, about 24 hours, HPLC) of 7400 µg/mL. Further, in data set [1] (mother liquor of PBS pH 7.4 slurry), the “pH (t = 24 h)” value was found to be 3.48. Moreover, the oxycodone withdrawal-induced jumping result in data set [2] is “significantly inhibited”.
